According to US20070166547A1, “Use of a layer consisting of hydrophobic linear, or two-dimensional polycyclic aromatics as a barrier layer or an encapsulation and electric components constructed with a layer of this type and comprising organic polymers” (priority 2003, published 2007):

Tests used:
[1] = Chronic toxicity, rectal suppositories: indexes of urine; details: rats, 1 month after the administration
Experimental: (§1) The experiments were conducted on inbred rats. The experimental animals were selected in groups by a method of random sampling taking into account the body mass as a determining index; 24 males or 24 females for one preparation from compounds 2, 15, 23, 34, 37 investigated in one dose.
(§2) Two doses of preparations used in the experiments: 50 mg/kg and 500 mg/kg. Before the administration, the suppositories were softened by heating in a glass water bath at a temperature of 38-39° C., the soft mass was collected in tuberculin syringe in a volume of 1 ml, a needle with oliva was attached to the syringe, and the preparatory mass was introduced into the rectum of the animal for a depth of 1.5-2.0 cm. The animals of the control group were administered with sterile medical liquid paraffin in a volume corresponding to the volume of the investigated suppository. A complete course of administration of drugs to the animals was two months. A complex of laboratory diagnostic investigations was carried out one month after the beginning of the administration of the preparation to the animal—in a middle of the course (8 animals), two months after ending the course (8 animals) and three months after ending the recovery period of one month (8 animals). The mass of the body of the rats in the first month of administration of the preparation was determined weekly, and then once in two weeks. On the basis of the dynamics of an index of the mass of the animal body, the volume of preparation being administered was corrected taking into account the test dose.

[2] = Chronic toxicity, rectal suppositories: biochemical indexes of blood serum; details: male rats, 1 month
Experimental: as §1, §2

For `Nc1ccnc2c(=O)n([C@@H]3O[C@H](CO)[C@@H](O)[C@H]3O)[nH]c(=O)c12` [Compound 2, 4-amino-7-(β-D-ribofuranosile)pyrido[2,3-d]-6H-pyridazine-5,8-dione], the “Bilirubin (index of urine)” value ([1]; dose 50 mg/kg) was less than 5 Mkmol/l, the “Glucose (index of urine)” value ([1]; dose 50 mg/kg) was less than 5 mmol/L and the “Ketone bodies (index of urine)” value ([1]; dose 50 mg/kg) was less than 1 mmol/L. The “Potassium (index of urine)” value ([1]; dose 50 mg/kg) was 5.78 ± 1.7 g/L, the “Protein (index of urine)” value ([1]; dose 50 mg/kg) was 0.69 ± 0.33 g/L and the “Sodium (index of urine)” value ([1]; dose 50 mg/kg) was 1.7 ± 0.3 g/L. For the same molecule, the “Urea (index of urine)” value ([1]; dose 50 mg/kg) was 457 ± 144 mmol/L, the “Urobilinogen (index of urine)” value ([1]; dose 50 mg/kg) was less than 16 Mkmol/l and the “pH (index of urine)” value ([1]; dose 50 mg/kg) was 6.1 ± 0.3. For the same molecule, the “Bilirubin (index of urine)” value ([1]; dose 500 mg/kg) was less than 5 Mkmol/l, the “Glucose (index of urine)” value ([1]; dose 500 mg/kg) was less than 5 mmol/L and the “Ketone bodies (index of urine)” value ([1]; dose 500 mg/kg) was less than 1 mmol/L. The “Potassium (index of urine)” value ([1]; dose 500 mg/kg) was 6.24 ± 1.8 g/L, the “Protein (index of urine)” value ([1]; dose 500 mg/kg) was 0.76 ± 0.31 g/L and the “Sodium (index of urine)” value ([1]; dose 500 mg/kg) was 1.27 ± 0.3 g/L. For the same molecule, the “Urea (index of urine)” value ([1]; dose 500 mg/kg) was 492 ± 187 mmol/L, the “Urobilinogen (index of urine)” value ([1]; dose 500 mg/kg) was less than 16 Mkmol/l and the “pH (index of urine)” value ([1]; dose 500 mg/kg) was 6.2 ± 0.2. It also gave an ALT ([2]; suppositories 50 mg/kg) of 10.84 ± 2.02 unit/l, an AST ([2]; suppositories 50 mg/kg) of 20.41 ± 3.06 unit/1 and an Alkalinous phosphatase ([2]; suppositories 50 mg/kg) of 42.12 ± 4.23 unit/1. For the same molecule, the Bilirubin ([2]; suppositories 50 mg/kg) was 44.38 ± 4.12, the Cholesterol ([2]; suppositories 50 mg/kg) was 2.77 ± 0.71 mmol/L and the Creatinine ([2]; suppositories 50 mg/kg) was 47.38 ± 3.26 mkmol/l. The Glucose ([2]; suppositories 50 mg/kg) was 9.85 ± 0.37 mM, the Total protein ([2]; suppositories 50 mg/kg) was 87.34 ± 5.56 g/L and the Urea ([2]; suppositories 50 mg/kg) was 11.02 ± 0.73. The ALT ([2]; suppositories 500 mg/kg) was 11.23 ± 1.70 unit/l, the AST ([2]; suppositories 500 mg/kg) was 20.13 ± 2.95 unit/1 and the Alkalinous phosphatase ([2]; suppositories 500 mg/kg) was 43.4 ± 2.12 unit/1. It also gave a Bilirubin ([2]; suppositories 500 mg/kg) of 42.56 ± 7.56, a Cholesterol ([2]; suppositories 500 mg/kg) of 2.96 ± 0.52 mmol/L and a Creatinine ([2]; suppositories 500 mg/kg) of 49.87 ± 8.12 mkmol/l. For the same molecule, the Glucose ([2]; suppositories 500 mg/kg) was 10.2 ± 0.74 mM, the Total protein ([2]; suppositories 500 mg/kg) was 70.84 ± 7.47 g/L and the Urea ([2]; suppositories 500 mg/kg) was 11.30 ± 0.80.
